Test results reported in PubChem BioAssay (NCI).
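Test compounds were applied to cells in 96-well plates for 48 hours at 5 doses. TGI: total growth inhibition.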

How the values were obtained:
Assay in all cases: growth of human tumour cells (NCI), 48 h
[1] = system: SN12C renal
[2] = system: OVCAR-8 ovarian
[3] = system: NCI-H460 lung
[4] = system: LOX IMVI melanoma
[5] = system: SF-268 CNS
[6] = system: BT-549 breast
[7] = system: OVCAR-5 ovarian
[8] = system: T-47D breast
[9] = system: SF-295 CNS
[10] = system: SK-OV-3 ovarian

`Cn1c2ccccc2n2c(=O)c(-c3ccc(O)cc3)nnc12` showed a TGI [1] of over 100 µM, a TGI [2] of over 100 µM and a TGI [3] of over 100 µM. The TGI [4] was over 100 µM, the TGI [5] was over 100 µM and the TGI [6] was over 100 µM. For the same molecule, the TGI [7] was over 100 µM, the TGI [8] was over 100 µM and the TGI [9] was over 100 µM.
Molecule `CC1CCN(c2nnc(Cl)cc2C(=O)c2ccccc2)CC1` has a TGI [1] of over 100 µM, a TGI [2] of over 100 µM and a TGI [3] of over 100 µM. For the same molecule, the TGI [4] was over 100 µM, the TGI [5] was 3.04 µM and the TGI [6] was over 100 µM. It also gave a TGI [7] of over 100 µM, a TGI [8] of over 100 µM and a TGI [9] of 83.9 µM.
`CC(C)=NN/C(=N\S(=O)(=O)c1cc(Cl)c(Oc2ccc([N+](=O)[O-])cc2Cl)c(Cl)c1)Nc1ccc(Cl)cc1` gave a TGI [1] of over 100 µM, a TGI [2] of over 100 µM and a TGI [3] of over 100 µM. The TGI [4] was over 100 µM, the TGI [5] was over 100 µM and the TGI [6] was over 100 µM. It also gave a TGI [7] of over 100 µM, a TGI [8] of over 100 µM and a TGI [9] of over 100 µM.
With `O=C(O)CCCN1CCCCC1` the TGI [1] was over 100 µM, the TGI [2] was over 100 µM and the TGI [3] was over 100 µM. It also gave a TGI [4] of over 100 µM, a TGI [5] of over 100 µM and a TGI [6] of over 100 µM. For the same molecule, the TGI [7] was over 100 µM, the TGI [8] was over 100 µM and the TGI [9] was over 100 µM.
Work on `O=Cc1cc(O)c(O)c(O)c1-c1c(C=O)cc(O)c(O)c1O` yielded a TGI [1] of over 100 µM, a TGI [2] of over 100 µM and a TGI [10] of over 100 µM. For the same molecule, the TGI [3] was over 100 µM, the TGI [4] was over 100 µM and the TGI [5] was over 100 µM. The TGI [7] was over 100 µM and the TGI [9] was over 100 µM.
`C=C1C(=O)O[C@H]2C1C[C@@H](O)[C@@]1(C)OC1CC[C@@]1(C)O[C@H]21` (stereo not given in full) was tested, and the TGI [1] was 42.4 µM, the TGI [2] was over 100 µM and the TGI [10] was over 100 µM. For the same molecule, the TGI [3] was over 100 µM, the TGI [4] was 27.5 µM and the TGI [5] was over 100 µM. The TGI [7] was 63.9 µM and the TGI [9] was over 100 µM.
With `CC1(C)COC(c2cccc(C3=NC(C)(C)CO3)c2)=N1` the TGI [2] was over 100 µM, the TGI [3] was over 100 µM and the TGI [4] was over 100 µM. The TGI [5] was over 100 µM, the TGI [6] was over 100 µM and the TGI [7] was over 100 µM. For the same molecule, the TGI [8] was over 100 µM.
In the case of `N=C(/C=C/c1ccc(-c2cn3cc(/C=C/C(=N)N4CCOCC4)ccc3n2)cc1)N1CCOCC1`, the TGI [1] is reported as over 100 µM, the TGI [2] is reported as over 100 µM and the TGI [10] is reported as over 100 µM. The TGI [3] was over 100 µM, the TGI [5] was over 100 µM and the TGI [6] was over 100 µM. For the same molecule, the TGI [7] was over 100 µM, the TGI [8] was over 100 µM and the TGI [9] was over 100 µM.
`CCCCc1ccc(N2C(=O)c3cc(C)cnc3S2(=O)=O)cc1` gave a TGI [1] of over 100 µM, a TGI [2] of over 100 µM and a TGI [10] of over 100 µM. The TGI [3] was over 100 µM, the TGI [4] was over 100 µM and the TGI [5] was over 100 µM. It also gave a TGI [7] of over 100 µM, a TGI [8] of over 100 µM and a TGI [9] of over 100 µM.
Molecule `CC1(c2cccc(C3CCC4(C=CC3=O)OCCO4)c2)OCCO1` (stereo not given) has a TGI [1] of 27.7 µM, a TGI [2] of 30.9 µM and a TGI [10] of over 67.5 µM. For the same molecule, the TGI [3] was 30.6 µM, the TGI [4] was 27.8 µM and the TGI [5] was 36 µM. The TGI [7] was 32.2 µM, the TGI [8] was 23.5 µM and the TGI [9] was over 56.7 µM.
For `Fc1ccc(C(=NCc2ccccc2)N2CCOCC2)cc1`, the TGI [1] was over 100 µM, the TGI [2] was over 100 µM and the TGI [10] was over 100 µM. The TGI [3] was over 100 µM, the TGI [4] was over 100 µM and the TGI [5] was over 100 µM. For the same molecule, the TGI [6] was over 100 µM, the TGI [7] was over 100 µM and the TGI [9] was over 100 µM.
For `OC(Cn1cncn1)(Cn1cncn1)c1ccc(Cl)cc1Cl`, the TGI [1] was over 100 µM, the TGI [2] was over 100 µM and the TGI [10] was over 100 µM. It also gave a TGI [3] of over 100 µM, a TGI [4] of over 100 µM and a TGI [5] of over 100 µM. It also gave a TGI [7] of over 100 µM and a TGI [9] of over 100 µM.
For `CCOC(=O)/C(O)=C(\C=N\C(=S)Nc1ccc(Cl)c(Cl)c1)C(=O)OCC`, the TGI [1] was over 100 µM, the TGI [2] was over 100 µM and the TGI [10] was over 100 µM. For the same molecule, the TGI [3] was over 100 µM, the TGI [4] was over 100 µM and the TGI [5] was over 100 µM. The TGI [7] was over 100 µM and the TGI [9] was over 100 µM.
Work on `COC(=O)CSc1[nH]c2nc(C)nc(Nc3ccccc3)c2c1C#N` yielded a TGI [1] of over 10 µM, a TGI [2] of over 10 µM and a TGI [10] of over 10 µM. For the same molecule, the TGI [4] was over 10 µM, the TGI [5] was over 10 µM and the TGI [8] was over 10 µM. It also gave a TGI [9] of over 10 µM.
In the case of `CCOC(=O)c1c(OCC)[nH]c(=O)c(C(c2ccc(F)cc2)c2c(O)c(C(=O)OCC)c(OCC)[nH]c2=O)c1O`, the TGI [1] is reported as 30.2 µM, the TGI [2] is reported as 28.1 µM and the TGI [3] is reported as 36.5 µM. It also gave a TGI [4] of 33.1 µM, a TGI [5] of 33.6 µM and a TGI [6] of 23.6 µM. For the same molecule, the TGI [7] was over 100 µM, the TGI [8] was 32.7 µM and the TGI [9] was 49.8 µM.
`CC1(C(O)c2ccccc2)CN(C(C)(C)C)C(=O)/C1=C\Sc1ccccc1` (stereo not given) was tested, and the TGI [1] was over 100 µM, the TGI [2] was over 100 µM and the TGI [10] was over 100 µM. For the same molecule, the TGI [4] was 32.1 µM, the TGI [5] was 43.5 µM and the TGI [6] was over 100 µM. For the same molecule, the TGI [7] was over 100 µM, the TGI [8] was over 100 µM and the TGI [9] was over 100 µM.
With `O=c1[nH]c2ccc(CC(=S)N3CCN(c4ccccc4)CC3)cc2s1` the TGI [1] was over 100 µM, the TGI [2] was 82 µM and the TGI [10] was 44.9 µM. The TGI [3] was 56.1 µM, the TGI [4] was over 100 µM and the TGI [5] was over 100 µM. For the same molecule, the TGI [6] was over 100 µM, the TGI [7] was 84.5 µM and the TGI [9] was over 100 µM.
